Source: patent US7417109B2, “Polymers for delivering nitric oxide in vivo” (Duke University, priority 1996, dated 2008)

What was measured:
[1] = cited from earlier work
[2] = Half-life and NO delivery in physiological solution (NO by method of Saville); type: physicochemical
Protocol: In addition, the half-lives for these compositions in physiological solution were measured. The half-life is time required for the composition to lose one half of its bound NO. The amount of NO in the composition is determined by the method of Saville, as described in Example 13.
The concentration of R—S—NO groups in a sample is based on the method reported in Saville, Analyst 83:620 (1958). By this method, R—S—NO groups are converted into an azo dye. The concentration of this dye is determined by measuring the absorbance at 540 nm (ε˜50,000 M^−1 cm^−1). The procedure is as follows:
A given volume (50 μl−1 m) of the sample to be assayed is added to an equivalent volume of solution A and solution B. The two samples are set aside for 5 minutes to allow formation of the diazonium salt, after which an equivalent volume of solution C is added to each mixture. Color formation, indicative of the azo dye product, is usually complete by 5 minutes. The sample absorbance is then read spectrophotometrically at 540 nm. The RSNO is quantified as the difference in absorbance between solution B and A. (i.e. B−A). In the event that the background nitrite concentration is high (i.e. increased background in A), the accuracy of the measurement can be increased by the addition of an equivalent volume of 0.5% ammonium sulfamate in acid (45 mM) 5 minutes prior to the addition of sulfanilamide. […]

time able to deliver NO [2]	Structure (SMILES)	lifetime in physiological solution [1]
–	CC(C)(SN=O)C(N)C(=O)O (racemic) [S-nitroso-D,L-penicillamine]	no more than about an hour
no more than one	CC(C)(SN=O)[C@H](N)C(=O)O [S-nitroso-penicillamine]	–
–	N[C@@H](CSN=O)C(=O)O [S-nitrosocysteine]	no more than about an hour
